From article PMC8231556, “Inhibiting Endothelial Cell Function in Normal and Tumor Angiogenesis Using BMP Type I Receptor Macrocyclic Kinase Inhibitors” (Cancers, 2021) come the findings set out here.

Assay [1] concerns constitutively active ALK2 (caALK2). Nature of the assay: caALK2-induced BRE-Luc reporter activity in C2C12 cells. Format: cell-based. The note with it: C2C12 cells, 0.1, 0.5 or 1 μM, 16 hours. An excerpt:
To further investigate and validate the selective inhibitory effects of OD16 and OD29 toward BMP9/ALK1 and BMP6/ALK2 signaling, we transfected C2C12 myoblast cells with constitutively active mutant ALK1 and ALK2 (caALK1 and caALK2). These constitutively active receptors signal in the absence of exogenous ligands and allow for a more direct assessment of inhibitory effects that are elicited by kinase receptor inhibitors.
Figure S2. Structural model of (A) LDN−193189, (B) OD16 (grey) overlay with LDN−193189 (green), (C) OD29 (grey) over-lay with LDN−193189 (green) bind to the ALK1 hinge region in the ATP pocket.
Figure S3. RT-qPCR analysis of the ALK1, ALK2 and GAPDH mRNA expression in EA.hy926 and HUVEC cells. Mean Cq and Cq standard error of the mean (SEM) are listed. Representative results from three independent experiments are shown.
Figure S4. OD29 and OD16 are two small molecule BMP type I receptors kinase inhibitors in C2C12 cells. Effects of vehicle control (DMSO), LDN−193189, OD16 or OD29 on BRE transcriptional luciferase reporter activity induced by the ectopic expression of caALK1 (A) or caALK2 (B) in C2C12 cells. Cells were incubated with the inhibitors in three different con-centrations (0.1 μM, 0.5 μM or 1 μM) for 16 hours. Representative results from three biologically independent experiments are shown as mean ± SD. NS, not significant; * p < 0.05, ** p < 0.005; *** p < 0.001. […]

The target in the next assay is ALK5 (Homo sapiens, UniProt P36897). Nature of the assay: radiometric protein kinase assay, affinity (Kd). Format: binding. How it is done:
(§1) The binding interaction profile of the compounds for ALK1–6, ACVR2A, ACVR2B, and TGFβR2 was determined by using radiometric protein kinase assay. For each compound, ten different concentrations (from 3 × 10^−6 M to 9 × 10^−11 M) were used in the protein kinase reaction. The inhibitor binding constants (Kd values) were calculated based on the 10 corresponding residual activities for each compound using Prism 5.04 (Graphpad, San Diego, CA, USA) according to the following formula:Kd = ([K][I]/[C]) where [K] = molar concentration of non-inhibitor bound kinase at equilibrium, [I] = molar concentration of the free inhibitor at equilibrium, [C] = molar concentration of kinase-inhibitor complex at equilibrium.

Another assay deals with ACVR2B (Homo sapiens, UniProt Q13705). Nature of the assay: radiometric protein kinase assay, affinity (Kd). Format: binding. How it is done: as §1
Another assay has as its target ALK4 (Homo sapiens, UniProt P36896). Nature of the assay: radiometric protein kinase assay, affinity (Kd). Format: binding. How it is done: as §1
For the next assay, the target named is ALK2 (Homo sapiens, UniProt Q04771). Nature of the assay: radiometric protein kinase assay, affinity (Kd). Format: binding. How it is done:
as §1

The target in another assay is ALK3 (Homo sapiens, UniProt P36894). Nature of the assay: radiometric protein kinase assay, affinity (Kd). Format: binding. How it is done:
as §1

For the next assay, the target named is T1, FLT3 (Homo sapiens, UniProt P36888).
T1 construct: purchased ProQinase (33PanQinase Activity Assay)
Nature of the assay: radiometric kinase profiling (33 PanQinase). Format: biochemical. Particulars: read-out: Inhibitory effect (%) FLT3. The essentials: (§2)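 Enzyme/substrate mixes were incubated with [γ-33P]-ATP and compound (added as a 0.1 μM solution in 10% DMSO) at 30 °C for 60 min, then stopped with H3PO4 and washed with NaCl. 33P incorporation was scintillation-counted, and residual activity (%) was normalized to untreated control and background.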

The next assay addresses T2, FGFR3 (Homo sapiens, UniProt P22607).
T2 construct: purchased ProQinase (33PanQinase Activity Assay)
Nature of the assay: radiometric kinase profiling (33 PanQinase). Format: biochemical. The note with it: read-out: Inhibitory effect (%) FGFR3. The gist of the method:
as §2

Another assay concerns the target T3, BRAF (Homo sapiens, UniProt P15056).
T3 construct: purchased Proqinase, Germany
Nature of the assay: radiometric kinase profiling (33 PanQinase). Format: biochemical. Particulars: read-out: Inhibitory effect (%) BRAF. The gist of the method: as §2

The target of the next assay is T4, SIK2 (Homo sapiens, UniProt Q9H0K1).
T4 construct: purchased ProQinase (33PanQinase Activity Assay)
Nature of the assay: radiometric kinase profiling (33 PanQinase). Particulars: read-out: Inhibitory effect (%) SIK2. Format: biochemical. The essentials:
as §2

For the next assay, the target named is T5, MAP4K5 (Homo sapiens, UniProt Q9Y4K4).
T5 construct: purchased ProQinase (33PanQinase Activity Assay)
Nature of the assay: radiometric kinase profiling (33 PanQinase). Format: biochemical. The note with it: read-out: Inhibitory effect (%) MAP4K5. The essentials: as §2

Structures are written as SMILES.

In general, Kd refers to a measure of binding affinity in units of concentration. Read a low Kd as a tighter complex.

T4 sequence (Q9H0K1 whole entry): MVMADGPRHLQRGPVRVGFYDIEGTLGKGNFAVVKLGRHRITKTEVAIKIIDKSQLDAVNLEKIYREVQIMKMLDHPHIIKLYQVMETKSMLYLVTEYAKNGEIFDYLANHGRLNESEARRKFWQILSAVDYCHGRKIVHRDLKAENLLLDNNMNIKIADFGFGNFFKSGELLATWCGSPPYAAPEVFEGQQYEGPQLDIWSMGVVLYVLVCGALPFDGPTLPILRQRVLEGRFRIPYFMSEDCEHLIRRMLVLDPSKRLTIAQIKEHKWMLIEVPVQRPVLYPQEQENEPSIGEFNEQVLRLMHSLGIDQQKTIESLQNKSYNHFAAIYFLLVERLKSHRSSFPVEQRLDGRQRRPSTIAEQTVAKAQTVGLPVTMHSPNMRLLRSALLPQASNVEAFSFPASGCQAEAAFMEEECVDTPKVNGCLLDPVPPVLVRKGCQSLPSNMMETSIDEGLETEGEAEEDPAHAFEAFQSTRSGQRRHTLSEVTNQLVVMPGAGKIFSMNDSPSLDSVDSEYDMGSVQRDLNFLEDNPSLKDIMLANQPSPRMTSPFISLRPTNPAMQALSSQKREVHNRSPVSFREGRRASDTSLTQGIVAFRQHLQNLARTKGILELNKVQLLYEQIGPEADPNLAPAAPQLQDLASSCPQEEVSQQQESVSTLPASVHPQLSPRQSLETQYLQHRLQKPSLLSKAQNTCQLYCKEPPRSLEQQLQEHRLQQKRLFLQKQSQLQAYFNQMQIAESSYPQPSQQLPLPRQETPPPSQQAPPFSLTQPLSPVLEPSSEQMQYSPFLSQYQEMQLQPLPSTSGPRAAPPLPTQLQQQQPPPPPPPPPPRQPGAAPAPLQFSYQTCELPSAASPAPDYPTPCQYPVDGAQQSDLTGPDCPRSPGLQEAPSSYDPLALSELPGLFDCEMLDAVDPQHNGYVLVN
Chain of ALK3 (P36894 24-532): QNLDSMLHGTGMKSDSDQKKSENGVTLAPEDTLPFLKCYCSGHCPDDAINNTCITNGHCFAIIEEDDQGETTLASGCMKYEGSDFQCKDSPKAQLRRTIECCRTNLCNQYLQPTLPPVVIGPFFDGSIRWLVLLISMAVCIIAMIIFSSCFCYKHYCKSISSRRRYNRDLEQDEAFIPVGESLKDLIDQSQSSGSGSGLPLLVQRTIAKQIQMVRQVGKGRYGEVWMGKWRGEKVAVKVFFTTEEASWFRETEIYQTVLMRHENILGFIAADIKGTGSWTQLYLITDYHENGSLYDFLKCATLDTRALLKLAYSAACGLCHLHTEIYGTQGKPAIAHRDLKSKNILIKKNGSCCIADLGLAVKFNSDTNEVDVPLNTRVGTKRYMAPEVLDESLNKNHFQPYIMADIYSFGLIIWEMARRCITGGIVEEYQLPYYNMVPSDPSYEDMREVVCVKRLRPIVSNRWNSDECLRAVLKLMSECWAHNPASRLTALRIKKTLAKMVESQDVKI
T5 sequence (Q9Y4K4 whole entry): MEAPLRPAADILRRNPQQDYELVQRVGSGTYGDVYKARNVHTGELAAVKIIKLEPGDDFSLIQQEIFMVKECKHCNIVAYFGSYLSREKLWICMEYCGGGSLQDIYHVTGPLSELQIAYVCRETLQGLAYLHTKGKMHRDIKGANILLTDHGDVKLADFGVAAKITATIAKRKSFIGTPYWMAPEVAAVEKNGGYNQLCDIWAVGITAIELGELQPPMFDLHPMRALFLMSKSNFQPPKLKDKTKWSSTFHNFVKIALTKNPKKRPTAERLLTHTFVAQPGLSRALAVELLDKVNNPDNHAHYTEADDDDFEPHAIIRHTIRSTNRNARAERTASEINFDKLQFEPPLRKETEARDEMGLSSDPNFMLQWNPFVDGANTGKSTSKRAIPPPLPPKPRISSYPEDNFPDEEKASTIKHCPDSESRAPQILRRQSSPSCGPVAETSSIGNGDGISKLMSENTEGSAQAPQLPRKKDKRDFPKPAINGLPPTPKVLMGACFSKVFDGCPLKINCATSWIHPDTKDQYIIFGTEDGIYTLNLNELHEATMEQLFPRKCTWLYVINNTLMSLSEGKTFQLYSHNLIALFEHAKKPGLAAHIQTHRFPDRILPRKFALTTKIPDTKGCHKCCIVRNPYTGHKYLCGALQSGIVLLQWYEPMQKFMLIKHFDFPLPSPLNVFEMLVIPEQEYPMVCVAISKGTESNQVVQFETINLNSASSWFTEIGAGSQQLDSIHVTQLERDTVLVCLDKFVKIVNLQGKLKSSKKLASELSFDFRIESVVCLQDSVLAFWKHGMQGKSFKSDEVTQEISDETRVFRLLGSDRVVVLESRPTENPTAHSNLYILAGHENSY
Chain of ALK5 (P36897 34-503): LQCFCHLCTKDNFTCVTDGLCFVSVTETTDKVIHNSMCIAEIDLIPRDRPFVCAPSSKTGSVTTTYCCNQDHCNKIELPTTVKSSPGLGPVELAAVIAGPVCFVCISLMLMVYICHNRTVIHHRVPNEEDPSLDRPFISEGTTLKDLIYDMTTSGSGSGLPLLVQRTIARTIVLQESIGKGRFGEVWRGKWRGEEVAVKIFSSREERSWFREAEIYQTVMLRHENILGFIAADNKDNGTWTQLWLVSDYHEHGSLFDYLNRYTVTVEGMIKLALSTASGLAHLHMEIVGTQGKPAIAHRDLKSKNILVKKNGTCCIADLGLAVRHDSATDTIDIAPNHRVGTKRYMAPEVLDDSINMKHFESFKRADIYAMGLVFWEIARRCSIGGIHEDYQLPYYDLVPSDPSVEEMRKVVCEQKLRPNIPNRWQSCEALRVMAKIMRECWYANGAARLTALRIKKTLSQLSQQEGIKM
Chain of ALK4 (P36896 24-505): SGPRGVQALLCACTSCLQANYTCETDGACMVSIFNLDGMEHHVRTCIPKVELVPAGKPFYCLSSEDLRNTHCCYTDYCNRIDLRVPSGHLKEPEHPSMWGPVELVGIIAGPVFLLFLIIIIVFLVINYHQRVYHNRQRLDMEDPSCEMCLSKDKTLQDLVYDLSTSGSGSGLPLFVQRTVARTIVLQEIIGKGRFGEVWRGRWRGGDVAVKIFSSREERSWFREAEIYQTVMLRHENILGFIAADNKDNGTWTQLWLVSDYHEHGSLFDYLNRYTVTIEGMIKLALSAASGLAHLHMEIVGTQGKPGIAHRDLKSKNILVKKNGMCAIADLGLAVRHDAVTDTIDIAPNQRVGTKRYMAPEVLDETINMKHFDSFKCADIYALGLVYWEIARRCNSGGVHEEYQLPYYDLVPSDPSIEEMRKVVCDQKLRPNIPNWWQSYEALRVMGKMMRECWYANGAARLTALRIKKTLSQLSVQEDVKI
T1 sequence (P36888 27-993): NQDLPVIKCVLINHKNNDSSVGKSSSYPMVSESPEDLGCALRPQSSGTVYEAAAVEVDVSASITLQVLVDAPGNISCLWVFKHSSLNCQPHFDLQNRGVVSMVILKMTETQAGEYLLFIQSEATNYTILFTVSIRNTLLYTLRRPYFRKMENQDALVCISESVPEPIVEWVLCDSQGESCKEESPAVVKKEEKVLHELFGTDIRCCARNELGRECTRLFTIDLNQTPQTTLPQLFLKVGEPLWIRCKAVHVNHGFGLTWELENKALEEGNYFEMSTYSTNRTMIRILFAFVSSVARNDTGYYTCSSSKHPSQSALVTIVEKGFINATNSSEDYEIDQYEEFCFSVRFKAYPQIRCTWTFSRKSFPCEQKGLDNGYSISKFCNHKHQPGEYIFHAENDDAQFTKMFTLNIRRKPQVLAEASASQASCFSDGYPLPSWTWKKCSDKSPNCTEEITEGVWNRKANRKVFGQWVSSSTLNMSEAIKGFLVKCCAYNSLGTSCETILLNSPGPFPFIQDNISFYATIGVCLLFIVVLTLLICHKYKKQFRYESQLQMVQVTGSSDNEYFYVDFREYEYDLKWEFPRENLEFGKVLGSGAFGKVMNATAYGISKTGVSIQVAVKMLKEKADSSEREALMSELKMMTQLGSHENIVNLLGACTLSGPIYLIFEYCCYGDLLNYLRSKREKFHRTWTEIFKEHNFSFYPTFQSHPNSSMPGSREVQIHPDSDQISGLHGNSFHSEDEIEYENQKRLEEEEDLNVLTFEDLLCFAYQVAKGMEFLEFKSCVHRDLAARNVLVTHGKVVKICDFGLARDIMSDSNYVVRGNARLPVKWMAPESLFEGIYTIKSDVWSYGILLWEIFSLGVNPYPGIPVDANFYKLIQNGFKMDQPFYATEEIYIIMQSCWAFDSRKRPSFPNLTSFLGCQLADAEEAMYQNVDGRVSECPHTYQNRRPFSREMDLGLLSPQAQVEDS
T2 sequence (P22607 23-806): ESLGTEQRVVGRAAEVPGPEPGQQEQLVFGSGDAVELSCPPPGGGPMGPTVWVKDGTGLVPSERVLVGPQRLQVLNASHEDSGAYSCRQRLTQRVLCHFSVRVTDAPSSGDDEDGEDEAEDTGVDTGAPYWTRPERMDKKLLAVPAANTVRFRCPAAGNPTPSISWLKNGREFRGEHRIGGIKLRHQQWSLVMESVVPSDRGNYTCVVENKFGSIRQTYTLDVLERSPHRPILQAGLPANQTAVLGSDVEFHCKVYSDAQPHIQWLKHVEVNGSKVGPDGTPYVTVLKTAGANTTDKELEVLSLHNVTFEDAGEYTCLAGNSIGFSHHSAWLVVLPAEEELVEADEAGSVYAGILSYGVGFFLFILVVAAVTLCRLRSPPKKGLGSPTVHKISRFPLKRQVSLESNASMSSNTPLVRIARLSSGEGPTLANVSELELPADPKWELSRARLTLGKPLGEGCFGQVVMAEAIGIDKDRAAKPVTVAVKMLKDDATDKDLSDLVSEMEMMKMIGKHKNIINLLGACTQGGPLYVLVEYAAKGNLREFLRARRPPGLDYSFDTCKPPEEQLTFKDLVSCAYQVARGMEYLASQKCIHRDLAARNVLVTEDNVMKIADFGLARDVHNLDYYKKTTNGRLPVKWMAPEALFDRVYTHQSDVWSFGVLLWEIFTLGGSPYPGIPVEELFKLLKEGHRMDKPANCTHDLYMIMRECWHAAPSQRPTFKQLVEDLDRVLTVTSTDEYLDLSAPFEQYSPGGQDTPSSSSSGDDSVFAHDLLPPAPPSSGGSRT

For the compound `c1ccc2c(-c3cnn4cc(-c5ccc(N6CCNCC6)cc5)cnc34)ccnc2c1` [LDN-193189, reference compound], in assay [1], the “effect on caALK2-induced BRE-Luc reporter activity” value is “in a dose-dependent manner attenuated”.

Consider `CN1CCc2cccc(c2)Nc2nccc(n2)N2CCCc3cc(ccc32)C1` [OD16], for which the Kd at ALK5 stood at 360 nM; at ACVR2B, 220 nM; on ALK4, 270 nM; on ALK2 it was 17 nM; at ALK3, 55 nM. For the same compound, the inhibition at 0.1 µM on FLT3 came to 4.56%; on FGFR3, 14.8%; on BRAF it was 5.01%; at SIK2, 43.8%; on MAP4K5, 14.6%.

Take `CN1CCC(=O)NCCNc2ccn3ncc(c3n2)-c2cccc(c2)C1` [OD29]: the Kd at ALK5 worked out at 1010 nM; on ACVR2B, 558 nM; on ALK4 it was 652 nM; at ALK2, 10 nM; on ALK3, 1010 nM. For the same compound, the inhibition at 0.1 µM on FLT3 was -4.23%; at FGFR3, 49.5%; at BRAF it was 5.1%; at SIK2 it was 1.13%; at MAP4K5 it was 19.1%.
